For orientation: melting point means the temperature of the solid-liquid transition.

The molecule `CC(C)(C)NC(=O)c1cc(Cl)cc(Cl)c1NC(=O)c1cc(C(F)(F)F)nn1-c1ncccc1Cl` displayed a melting point of 170 to 172 °C.
Then `CC(C)(C)NC(=O)c1cc(Br)cc(Br)c1NC(=O)c1cc(Br)nn1-c1ncccc1Cl`, with 194 to 196 °C.
`Cc1cc(Br)cc(C(=O)NC(C)(C)C)c1NC(=O)c1cc(Cl)nn1-c1ncccc1Cl` had a melting point of 224 to 225 °C.
On to `CNC(=O)c1cc(I)cc(C)c1NC(=O)c1cc(C(F)(F)F)nn1-c1ncccc1Cl`, for which the melting point fell in the range of 199 to 200 °C.
In turn, `CCNC(=O)c1cc(Cl)cc(C)c1NC(=O)c1cc(OCC(F)(F)F)nn1-c1ncccc1Cl` came in with a melting point of 205 to 207 °C.
`CN(C)C(=O)c1cc(Cl)cc(Cl)c1NC(=O)c1cc(Br)nn1-c1ncccc1Cl` yielded a melting point of 216 to 218 °C.
`CC(C)(C)NC(=O)c1cc(Cl)cc(Cl)c1NC(=O)c1cc(Cl)nn1-c1ncccc1Cl` came in with a melting point of 172 to 173 °C.
As for `CCNC(=O)c1cc(Br)cc(Br)c1NC(=O)c1cc(Br)nn1-c1ncccc1Cl`, the melting point was in the range of 196 to 197 °C.
The molecule `CN(C)C(=O)c1cc(Br)cc(Br)c1NC(=O)c1cc(Br)nn1-c1ncccc1Cl` came in with a melting point of 189 to 190 °C.
For the molecule `Cc1cc(Br)cc(C(=O)NC(C)C)c1NC(=O)c1cc(Br)nn1-c1ncccc1Cl`, the melting point lay in the range of 185 to 187 °C.
Take `CNC(=O)c1cc(Cl)cc(C)c1NC(=O)c1cc(OCC(F)(F)F)nn1-c1ncccc1Cl`: the melting point was 207 to 208 °C.
Then `CC(C)(C)NC(=O)c1cc(Br)cc(Br)c1NC(=O)c1cc(C(F)(F)F)nn1-c1ncccc1Cl`, with 246 to 247 °C.
The molecule `CCNC(=O)c1cc(Br)cc(Br)c1NC(=O)c1cc(C(F)(F)F)nn1-c1ncccc1Cl` gave a melting point of 188 to 189 °C.
Molecule `Cc1cc(I)cc(C(=O)NC(C)C)c1NC(=O)c1cc(Cl)nn1-c1ncccc1Cl` returned a melting point of 189 to 190 °C.
Regarding `CN(C)C(=O)c1cc(Cl)cc(Cl)c1NC(=O)c1cc(Cl)nn1-c1ncccc1Cl`, the melting point was 231 to 232 °C.
`CCNC(=O)c1cc(Cl)cc(Cl)c1NC(=O)c1cc(C(F)(F)F)nn1-c1ncccc1Cl` returned a melting point of 201 to 202 °C.
Then `CC(C)NC(=O)c1cc(Br)cc(Br)c1NC(=O)c1cc(Cl)nn1-c1ncccc1Cl`, with 197 to 199 °C.
In the case of `CN(C)C(=O)c1cc(Br)cc(Br)c1NC(=O)c1cc(C(F)(F)F)nn1-c1ncccc1Cl`, the melting point was 228 to 229 °C.
In turn, `CNC(=O)c1cc(Cl)cc(Cl)c1NC(=O)c1cc(OCC(F)(F)F)nn1-c1ncccc1Cl` came in with a melting point of 192 to 195 °C.
Molecule `Cc1cc(Br)cc(C(=O)NC(C)(C)C)c1NC(=O)c1cc(Br)nn1-c1ncccc1Cl` registered a melting point of 215 to 221 °C.
The molecule `Cc1cc(Cl)cc(C(=O)NC(C)(C)C)c1NC(=O)c1cc(Cl)nn1-c1ncccc1Cl` returned a melting point of 163 to 165 °C.
Regarding `Cc1cc(Cl)cc(C(=O)NC(C)(C)C)c1NC(=O)c1cc(C(F)(F)F)nn1-c1ncccc1Cl`, the melting point lay within 223 to 225 °C.
Take `CC(C)(C)NC(=O)c1cc(Br)cc(Br)c1NC(=O)c1cc(Cl)nn1-c1ncccc1Cl`: the melting point lay within 210 to 212 °C.
Regarding `CNC(=O)c1cc(Cl)cc(C)c1NC(=O)c1cc(Cl)nn1-c1ncccc1Cl`, the melting point lay within 225 to 226 °C.
Regarding `CNC(=O)c1cc(Br)cc(Br)c1NC(=O)c1cc(Br)nn1-c1ncccc1Cl`, the melting point is 166 to 168 °C.
Then `Cc1cc(Br)cc(C(=O)NC(C)C)c1NC(=O)c1cc(C(F)(F)F)nn1-c1ncccc1Cl`, with 197 to 198 °C; and `Cc1cc(Cl)cc(C(=O)NC(C)C)c1NC(=O)c1cc(OCC(F)(F)F)nn1-c1ncccc1Cl`, with 217 to 218 °C; and `CC(C)NC(=O)c1cc(Cl)cc(Cl)c1NC(=O)c1cc(Cl)nn1-c1ncccc1Cl`, with 197 to 199 °C.
As for `Cc1cc(I)cc(C(=O)NC(C)C)c1NC(=O)c1cc(C(F)(F)F)nn1-c1ncccc1Cl`, the melting point lay in the range of 188 to 189 °C.
`CCNC(=O)c1cc(Cl)cc(C)c1NC(=O)c1cc(Br)nn1-c1ncccc1Cl` had a melting point of 194 to 195 °C.
`Cc1cc(Br)cc(C(=O)NC(C)C)c1NC(=O)c1cc(Cl)nn1-c1ncccc1Cl`: the melting point lay within 152 to 153 °C.
Then `CCNC(=O)c1cc(Cl)cc(Cl)c1NC(=O)c1cc(Cl)nn1-c1ncccc1Cl`, with 206 to 208 °C; and `CC(C)NC(=O)c1cc(Cl)cc(Cl)c1NC(=O)c1cc(C(F)(F)F)nn1-c1ncccc1Cl`, with 200 to 201 °C; and `CNC(=O)c1cc(Cl)cc(Cl)c1NC(=O)c1cc(C(F)(F)F)nn1-c1ncccc1Cl`, with 155 to 157 °C.
The value for `CC(C)NC(=O)c1cc(Cl)cc(Cl)c1NC(=O)c1cc(Br)nn1-c1ncccc1Cl` was 188 to 190 °C; that for `CNC(=O)c1cc(I)cc(C)c1NC(=O)c1cc(Br)nn1-c1ncccc1Cl` was 229 to 230 °C.
On to `CC(C)(C)NC(=O)c1cc(Cl)cc(Cl)c1NC(=O)c1cc(Br)nn1-c1ncccc1Cl`, for which the melting point was in the range of 179 to 180 °C.
In turn, `CCNC(=O)c1cc(Br)cc(C)c1NC(=O)c1cc(Br)nn1-c1ncccc1Cl` returned a melting point of 194 to 196 °C.
Take `CN(C)C(=O)c1cc(Br)cc(Br)c1NC(=O)c1cc(Cl)nn1-c1ncccc1Cl`: the melting point fell in the range of 153 to 155 °C.
The value for `CCNC(=O)c1cc(Br)cc(C)c1NC(=O)c1cc(C(F)(F)F)nn1-c1ncccc1Cl` was 192 to 193 °C.
In turn, `CN(C)C(=O)c1cc(Cl)cc(Cl)c1NC(=O)c1cc(C(F)(F)F)nn1-c1ncccc1Cl` returned a melting point of 225 to 227 °C.
Take `Cc1cc(I)cc(C(=O)NC(C)C)c1NC(=O)c1cc(Br)nn1-c1ncccc1Cl`: the melting point fell in the range of 191 to 192 °C.
`Cc1cc(I)cc(C(=O)NC(C)(C)C)c1NC(=O)c1cc(C(F)(F)F)nn1-c1ncccc1Cl` showed a melting point of 242 to 243 °C.
On to `CC(C)(C)NC(=O)c1cc(Br)cc(Cl)c1NC(=O)c1cc(C(F)(F)F)nn1-c1ncccc1Cl`, for which the melting point was 143 to 145 °C.
In turn, `CNC(=O)c1cc(Cl)cc(Cl)c1NC(=O)c1cc(Cl)nn1-c1ncccc1Cl` registered a melting point of 205 to 206 °C.
`CNC(=O)c1cc(Br)cc(C)c1NC(=O)c1cc(Cl)nn1-c1ncccc1Cl`: the melting point was in the range of 140 to 141 °C.
Then `CCNC(=O)c1cc(Cl)cc(Cl)c1NC(=O)c1cc(Br)nn1-c1ncccc1Cl`, with 214 to 215 °C; and `CCNC(=O)c1cc(Br)cc(C)c1NC(=O)c1cc(Cl)nn1-c1ncccc1Cl`, with 192 to 194 °C.
In the case of `CNC(=O)c1cc(Br)cc(C)c1NC(=O)c1cc(C(F)(F)F)nn1-c1ncccc1Cl`, the melting point lay within 222 to 223 °C.
`Cc1cc(Br)cc(C(=O)N(C)C)c1NC(=O)c1cc(C(F)(F)F)nn1-c1ncccc1Cl`: the melting point lay within 207 to 208 °C.
Take `Cc1cc(Br)cc(C(=O)NC(C)(C)C)c1NC(=O)c1cc(C(F)(F)F)nn1-c1ncccc1Cl`: the melting point was 247 to 248 °C.
`CC(C)NC(=O)c1cc(Br)cc(Br)c1NC(=O)c1cc(C(F)(F)F)nn1-c1ncccc1Cl` came in with a melting point of 192 to 193 °C.
Regarding `CCNC(=O)c1cc(Br)cc(Br)c1NC(=O)c1cc(Cl)nn1-c1ncccc1Cl`, the melting point lay in the range of 192 to 194 °C.
For `CCNC(=O)c1cc(Cl)cc(C)c1NC(=O)c1cc(Cl)nn1-c1ncccc1Cl`, the melting point is 199 to 200 °C.
In turn, `Cc1cc(I)cc(C(=O)NC(C)(C)C)c1NC(=O)c1cc(Cl)nn1-c1ncccc1Cl` had a melting point of 228 to 229 °C.
`CNC(=O)c1cc(I)cc(C)c1NC(=O)c1cc(Cl)nn1-c1ncccc1Cl` gave a melting point of 233 to 234 °C.
`Cc1cc(Cl)cc(C(=O)NC(C)(C)C)c1NC(=O)c1cc(Br)nn1-c1ncccc1Cl` registered a melting point of 159 to 161 °C.
`CNC(=O)c1cc(Br)cc(Br)c1NC(=O)c1cc(C(F)(F)F)nn1-c1ncccc1Cl` yielded a melting point of 162 to 163 °C.
The molecule `CNC(=O)c1cc(Cl)cc(Cl)c1NC(=O)c1cc(Br)nn1-c1ncccc1Cl` had a melting point of 245 to 246 °C.
The value for `CNC(=O)c1cc(Br)cc(Br)c1NC(=O)c1cc(Cl)nn1-c1ncccc1Cl` was 188 to 190 °C.
Consider `CC(C)NC(=O)c1cc(Br)cc(Br)c1NC(=O)c1cc(Br)nn1-c1ncccc1Cl`, for which the melting point is 162 to 163 °C.
`CCNC(=O)c1cc(I)cc(C)c1NC(=O)c1cc(Cl)nn1-c1ncccc1Cl` came in with a melting point of 196 to 197 °C.
Consider `CCNC(=O)c1cc(I)cc(C)c1NC(=O)c1cc(C(F)(F)F)nn1-c1ncccc1Cl`, for which the melting point is 199 to 200 °C.
As for `CCNC(=O)c1cc(Cl)cc(C)c1NC(=O)c1cc(C(F)(F)F)nn1-c1ncccc1Cl`, the melting point lay within 163 to 164 °C.
Regarding `CNC(=O)c1cc(Br)cc(C)c1NC(=O)c1cc(Br)nn1-c1ncccc1Cl`, the melting point was in the range of 147 to 149 °C.
Then `CC(C)NC(=O)c1cc(Cl)cc(Cl)c1NC(=O)c1cc(OCC(F)(F)F)nn1-c1ncccc1Cl`, with 232 to 235 °C.

Source of the values: patent US8993483B2, “Combination of active substances with insecticidal properties” (Bayer Intellectual Property GmbH, priority 2003, dated 2015).
